Values quoted from earlier work as cited in article PMC4939907 (Angewandte Chemie (International ed. in English), 2016).

Test system: cancer (e.g., HeLa) and normal (e.g., HS-5) cells
Conditions: cancer (e.g., HeLa) versus normal (e.g., HS-5) cells; ref 4c, 4d, 10b

Nap-D-Phe-D-Phe-D-pTyr
selectivity for cancer cells: selectively inhibits cancer cells
